Laboratory results as given in patent US20240317683A1, “METHODS OF TREATING MOOD DISORDERS” (priority 2020, published 2024).
Structures can show the parent of a compound that is named as a salt. Where two headings read alike, the source gives them in different places.

What was measured:
[1] = Pharmacokinetics in mice, plasma; assay type: in vivo, C57BL/6 mice; conditions: for F: mouse, based on plasma AUC0-last
Protocol: Animals. Male C57BL/6 mice, aged 8-12 weeks, were used in these studies. Four mice were housed in each cage. Temperature and humidity were maintained at 22±3° C. and 30-70%, respectively, and illumination was controlled to give a 12 h light and 12 h dark cycle. Temperature and humidity were recorded by an auto-controlled data logger system. All animals were provided laboratory rodent diet. Reverse osmosis water treated with ultraviolet light was provided ad libitum. Animals were randomly assigned to treatment groups.
Drugs. Compounds 4 and 5 were prepared as described above. All other compounds were commercially obtained. Test compounds were used as the hydrogen fumarate (1 and 2) or hydrochloride (3, 4, and 5) salts and were dissolved in a vehicle consisting of normal saline. They were then administered intravenously (IV) via the tail vein, subcutaneously (SC), or orally (PO) via gavage at a dose of 1 or 10 mg/kg (calculated based on the free base) and at a volume of 5 ml/kg body weight.
Sample Collection and Bioanalysis. Blood samples (approximately 60 μL) were collected under light isoflurane anesthesia (Surgivet®) from the retro orbital plexus at 0.08, 0.25, 0.5, 1, 2, 4, 8, and 24 h (4 animals per time point). Immediately after blood collection, plasma was harvested by centrifugation at 4,000 rpm for 10 min at 4° C. and samples were stored at −70±10° C. until bioanalysis. Following blood collection, animals were immediately sacrificed, the abdominal vena-cava was cut open, and the whole body was perfused from the heart using 10 mL of normal saline, and brain samples were collected from all animals. After isolation, brain samples were rinsed three times in ice-cold normal saline (for 5-10 seconds/rinse using ˜5-10 mL normal saline in disposable petri dish for each rinse) and dried on blotting paper. Brain samples were homogenized using ice-cold phosphate-buffered saline (pH 7.4). Total homogenate volume was three times the tissue weight. All homogenates were stored at −70±10° C. until bioanalysis. For bioanalysis, 25 μL aliquots of plasma/brain study samples or spiked plasma/brain calibration standards were added to individual pre-labeled micro-centrifuge tubes followed by 100 μL of an internal standard solution (glipizide, 500 ng/ml in acetonitrile) except for blanks, where 100 μL of acetonitrile was added. Samples were vortexed for 5 minutes and then centrifuged for 10 minutes at 4,000 rpm at 4° C. Following centrifugation, 100 μL of each clear supernatant was transferred to a 96 well plate and analyzed with a fit-for-purpose LC-MS/MS method, with authentic samples of each analyte used for calibration and identification.
Data Analysis. Pharmacokinetic parameters were estimated using the non-compartmental analysis tool of Phoenix® WinNonlin software (Ver 8.0).

[2] = test system: monoamine oxidase A and B (MAO-A and MAO-B); test: Stability in the presence of monoamine oxidases (human liver mitochondria); assay type: in vitro ADME
Protocol: Liver Mitochondria Incubations. Human liver mitochondria (Xenotech H0610.M) were used. Mitochondrial incubations were carried out in multi-well plates. […] Six time points over 60 minutes were analyzed.

[3] = Metabolic stability in human liver microsomes (HLM); assay type: in vitro ADME; conditions: both sexes, pooled human liver microsomes, pH 7.4, NADPH
Protocol: (§1) HLM Stability. Pooled HLM from adult male and female donors (Corning 452117) were used. Microsomal incubations were carried out in multi-well plates. […] Control incubations were performed by replacing the NADPH-cofactor system with PBS. Test compounds (1 μM, final solvent concentration 1.0%) were incubated with microsomes at 37° C. with constant shaking. Six time points over 60 minutes were analyzed, with 60 μL aliquots of the reaction mixture being drawn at each time point.

[4] = target: serotonin transporter (SERT) (Homo sapiens (Human), UniProt P31645); test: SERT fluorescent substrate uptake inhibition in transfected HEK293 cells; assay type: cell-based; conditions: HEK293 cells expressing SERT
Protocol: SERT Uptake Inhibition. The ability of test compounds to block monoamine uptake by SERT was determined using the Neurotransmitter Transporter Uptake Assay Kit manufactured by Molecular Devices (Cat #R8173). Briefly, stably transfected HEK293 cells expressing SERT were grown and plated into 384-well plates at a concentration of 20,000 cells per well. Plates were then incubated for 16-20 h at 37° C. and 5% CO2. The medium was then aspirated and replaced with 25 μL of assay buffer (20 mM HEPES in HBSS, containing 0.1% BSA) containing the test compounds at the appropriate concentrations. Plates were then centrifuged at 300 rpm for 15 s and then incubated at 37° C. for 30 minutes. At this time, 25 μL of the proprietary fluorescent dye solution was added, the plates were incubated at 37°° C. for 60 minutes, and then fluorescence was quantified on a plate reader (excitation wavelength =440 nm, emission wavelength=520 nm). The proprietary dye solution contains a mixture of 1) a fluorescent dye (dye 1) that mimics the endogenous substrate of SERT and is thereby actively transported to the intracellular compartment in the absence of an inhibitor and 2) a masking dye that inhibits the fluorescence of dye 1 in the extracellular compartment. Therefore, the overall fluorescence of the system increases as the fluorescent dye is transported into the cells.

[5] = target: 5-HT2A (Homo sapiens (Human), UniProt P28223); test: FLIPR Ca2+ flux agonist assay, 5-HT2A; assay type: cell-based
Protocol: (§2) A solution of 250 mM probenecid in 1 mL FLIPR assay buffer was prepared fresh. This was combined with a fluorescent dye (Fluo-4 Direct™) to make a final assay concentration of 2.5 mM. […] The fluorescent dye was then added to the assay plate along with assay buffer to a final volume of 40 μL. The cell plate was incubated for 50 min at 37° C. and 5% CO2 and placed into the FLIPR Tetra along with the compound plate. 10 μL of references and compounds were then transferred from the compound plate into the cell plate and the fluorescent signal was read.

[6] = target: 5-HT1A (Homo sapiens (Human), UniProt P08908); test: FLIPR Ca2+ flux agonist assay, 5-HT1A; assay type: cell-based
Protocol: as §2

[7] = Metabolic stability in mouse liver microsomes (MLM); assay type: in vitro ADME, CD-1 mice; conditions: CD-1, mouse, pooled mouse liver microsomes, pH 7.4, NADPH
Protocol: as §1, with “MLM” for “HLM”, “CD-1 mice (BIOIVT M00501)” for “adult male and female donors (Corning 452117)”

[8] = male, C57BL/6, mouse plasma, IV, 10 mg/kg
[9] = male, C57BL/6, mouse plasma, SC, 1 mg/kg
[10] = male, C57BL/6, mouse plasma, SC, 10 mg/kg
[11] = male, C57BL/6, mouse plasma, oral, 10 mg/kg
[12] = human liver mitochondria, pH 7.4, human mitochondrial preparation, 1 μM

`CCN(C)CCc1c[nH]c2ccc(F)cc12` [Compound 4, N-ethyl-2-(5-fluoro-1H-indol-3-yl)-N-methylethan-1-amine hydrochloride] gave an AUC(0-t) [1, 8] of 1790 ng·h/mL, a clearance [1, 8] of 92.8 mL/min/kg and a half-life [1, 8] of 51.6 min. For the same compound, the Cmax ([1]; male, C57BL/6, mouse plasma, IV, 10 mg/kg, read-out: Cmax (C0 back-extrapolated to t = 0)) was 2910 ng/mL, the AUC(0-t) [1, 9] was 57.5 ng·h/mL and the Tmax [1, 9] was 4.8 min. The half-life [1, 9] was 27 min, the Cmax ([1]; male, C57BL/6, mouse plasma, SC, 1 mg/kg, read-out: Cmax) was 83.2 ng/mL and the AUC(0-t) [1, 10] was 1170 ng·h/mL. It also gave a Tmax [1, 10] of 30 min, a half-life [1, 10] of 54 min and a Cmax ([1]; male, C57BL/6, mouse plasma, SC, 10 mg/kg, read-out: Cmax) of 631 ng/mL. It also gave an AUC(0-t) [1, 11] of 623 ng·h/mL, a Tmax [1, 11] of 15 min and a half-life [1, 11] of 80.4 min. For the same compound, the Cmax ([1]; male, C57BL/6, mouse plasma, oral, 10 mg/kg, read-out: Cmax) was 272 ng/mL, the F ([1]; SC, 1 mg/kg) was 32% and the F ([1]; SC, 10 mg/kg) was 65%. For the same compound, the F ([1]; oral, 10 mg/kg) was 35%, the “MAO stability (in words)” value ([2]; human liver mitochondria preparation) was “intermediate stability” and the half-life at 1 μM [2, 12] was > 145 min. For the same compound, the microsomal CLint at 1 μM [2, 12] was < 15.9 µL/min/mg, the “Remaining (t = 60 min)” value ([2]; human mitochondrial preparation, 1 μM, 60 min) was 75.0% and the half-life at 1 μM [3] was 47.9 min. For the same compound, the microsomal CLint at 1 μM [3] was 28.9 µL/min/mg, the IC50 [4] was 419 nM and the “SERT % Inhibition @ Max Dose” value [4] was 77.45%. The “selectivity for 5-HT2A over 5-HT2B (in words)” value [5] was “highly selective”, the “5-HT2A % Act @ Max Dose” value ([5]; HEK293) was 87.6% and the EC50 ([5]; HEK293) was 20.6 nM. The EC50 [6] was 16900 nM, the “5-HT1A % Act @ Max Dose” value ([6]; Ca2+ flux, CHO cells) was 83.01% and the half-life at 1 μM [7] was 47.6 min. The microsomal CLint at 1 μM [7] was 29.1 µL/min/mg.
